The target of this assay is T1, recombinant human GR (Homo sapiens, UniProt P04150).
T1 construct: purchased Panvera/Invitrogen P2812 (kit P2893)
T1 sequence (P04150 1-777): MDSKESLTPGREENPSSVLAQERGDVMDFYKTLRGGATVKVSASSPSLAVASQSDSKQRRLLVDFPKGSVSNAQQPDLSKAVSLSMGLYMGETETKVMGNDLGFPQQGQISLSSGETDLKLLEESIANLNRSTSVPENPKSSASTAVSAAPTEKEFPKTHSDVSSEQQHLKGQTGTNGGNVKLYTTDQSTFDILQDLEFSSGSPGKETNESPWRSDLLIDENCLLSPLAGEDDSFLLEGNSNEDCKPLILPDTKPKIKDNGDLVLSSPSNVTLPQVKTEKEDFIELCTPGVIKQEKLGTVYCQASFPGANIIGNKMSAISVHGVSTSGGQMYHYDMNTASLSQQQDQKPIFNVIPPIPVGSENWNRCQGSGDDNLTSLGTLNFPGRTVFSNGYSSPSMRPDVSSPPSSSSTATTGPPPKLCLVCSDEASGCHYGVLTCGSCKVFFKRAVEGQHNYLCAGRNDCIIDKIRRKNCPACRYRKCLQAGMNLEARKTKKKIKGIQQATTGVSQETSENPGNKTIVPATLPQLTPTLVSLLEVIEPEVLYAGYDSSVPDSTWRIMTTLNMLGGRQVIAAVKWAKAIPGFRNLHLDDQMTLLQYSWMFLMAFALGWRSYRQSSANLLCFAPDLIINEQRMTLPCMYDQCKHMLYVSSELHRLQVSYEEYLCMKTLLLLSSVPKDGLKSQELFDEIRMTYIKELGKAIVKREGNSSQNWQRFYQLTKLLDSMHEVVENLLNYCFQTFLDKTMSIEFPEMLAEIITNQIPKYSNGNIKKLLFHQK
In words: Human Glucocorticoid Receptor (GR) Assay, fluorescence polarization. It is filed as binding. The conditions noted are these: GS Red tracer, incubated 2 h at r.t., XLfit model 205, read-out: GRhuFL_FP_v2 Mean IC50. The method in brief:
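After 2 h dark incubation at r.t., polarization reported displacement of the GS Red tracer from recombinant GR, in buffer with phosphate, molybdate, EDTA, DTT and Stabilizing Peptide. Controls: dexamethasone (100%) and DMSO (0%).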
For the compound `COc1c(C)cc([C@@H](Oc2ccc3c(cnn3-c3ccc(F)cc3)c2)[C@H](C)NC(=O)c2ncc(C)s2)cc1C` [Example 203, N-[(1R,2S)-1-[1-(4-fluorophenyl)indazol-5-yl]oxy-1-(4-methoxy-3,5-dimethyl-phenyl)propan-2-yl]-5-methyl-1,3-thiazole-2-carboxamide], the IC50 is 5.4 nM. With `Cc1cc2c(cnn2-c2ccc(F)cc2)cc1O[C@H](c1ccccc1)[C@H](C)NC(=O)CO` [Example 64, N-[(1R,2S)-1-[1-(4-Fluorophenyl)-6-methyl-indazol-5-yl]oxy-1-phenyl-propan-2-yl]-2-hydroxy-acetamide], the half-maximal inhibitory concentration (IC50) came to 3.9 nM. Turning to `Cc1ccc([C@@H](Oc2ccc3c(cnn3-c3ccc(F)cc3)c2)[C@H](C)NC(=O)C(C)(C)C)cc1C` [Example 171, N-[(1R,2S)-1-(3,4-dimethylphenyl)-1-[1-(4-fluorophenyl)indazol-5-yl]oxy-propan-2-yl]-2,2-dimethyl-propanamide], the concentration for half-maximal inhibition (IC50) amounted to 5.6 nM. Then `CC[C@H](NC(=O)C(C)(C)C)[C@H](Oc1ccc2c(cnn2-c2ccc(F)cc2)c1)c1ccccc1` [Example 96, N-((1R,2S)-1-(1-(4-fluorophenyl)-1H-indazol-5-yloxy)-1-phenylbutan-2-yl)pivalamide], with 3.5 nM.

With `CC(C)(C)C(=O)NC(C(Oc1ccc2c(cnn2-c2ccc(F)cc2)c1)c1ccccc1)C(F)(F)F` (single isomer, unassigned) [Example 147D2E1, N-(1,1,1-trifluoro-3-(1-(4-fluorophenyl)-1H-indazol-5-yloxy)-3-phenylpropan-2-yl)pivalamide], the IC50 was found to be 7.4 nM. On to `COc1ccc([C@@H](Oc2ccc3c(cnn3-c3ccc(F)cc3)c2)[C@H](C)NC(=O)C(C)(C)F)cc1F` [Example 246, 2-fluoro-N-[(1R,2S)-1-(3-fluoro-4-methoxy-phenyl)-1-[1-(4-fluorophenyl)indazol-5-yl]oxy-propan-2-yl]-2-methyl-propanamide], for which the IC50 turned out to be 6 nM. Then `CCC[C@H](NC(=O)CO)[C@H](Oc1ccc2c(cnn2-c2ccc(F)cc2)c1)c1cccc(OC)c1` [Example 93, N-((1R,2S)-1-(1-(4-fluorophenyl)-1H-indazol-5-yloxy)-1-(3-methoxyphenyl)pentan-2-yl)-2-hydroxyacetamide], with 3.7 nM; and `C[C@H](NC(=O)C(F)(F)F)[C@H](Oc1ccc2c(cnn2-c2ccc(F)cc2)c1)c1cc(F)cc(Cl)c1` [Example 161, N-[(1R,2S)-1-(3-chloro-5-fluoro-phenyl)-1-[1-(4-fluorophenyl)indazol-5-yl]oxy-propan-2-yl]-2,2,2-trifluoro-acetamide], with 8.5 nM; and `COc1cccc([C@@H](Oc2ccc3c(cnn3-c3ccc(F)cc3)c2)[C@H](C)NC(=O)C(C)C)c1` [Example 55, N-[(1R,2S)-1-[1-(4-fluorophenyl)indazol-5-yl]oxy-1-(3-methoxyphenyl)propan-2-yl]-2-methyl-propanamide], with 3.3 nM. With `C[C@H](NC(=O)C1(C)CC1)[C@H](Oc1ccc2c(cnn2-c2ccc(F)cc2)c1)c1ccc2c(c1)OCCO2` [Example 124, N-((1R,2S)-1-(2,3-dihydrobenzo[b][1,4]dioxin-6-yl)-1-(1-(4-fluorophenyl)-1H-indazol-5-yloxy)propan-2-yl)-1-methylcyclopropanecarboxamide], the IC50 is 2.7 nM. Regarding `C[C@H](NC(=O)C(F)(F)F)[C@H](Oc1ccc2c(cnn2-c2ccc(F)cc2)c1)c1ccc(Cl)cc1` [Example 160, N-[(1R,2S)-1-(4-chlorophenyl)-1-[1-(4-fluorophenyl)indazol-5-yl]oxy-propan-2-yl]-2,2,2-trifluoro-acetamide], the IC50 turned out to be 4.1 nM. Next, `Cc1cnc(C(=O)N[C@@H](C)[C@H](Oc2ccc3c(cnn3-c3ccc(F)cc3)c2)c2cccc(F)c2)s1` [Example 195, N-[(1R,2S)-1-(3-fluorophenyl)-1-[1-(4-fluorophenyl)indazol-5-yl]oxy-propan-2-yl]-5-methyl-1,3-thiazole-2-carboxamide]: 3.3 nM; `CC(C)C(=O)NC(=O)C(Oc1ccc2c(cnn2-c2ccc(F)cc2)c1)c1ccccc1` (stereo not drawn) [Example 137, N-[2-[1-(4-fluorophenyl)indazol-5-yl]oxy-2-phenyl-acetyl]-2-methyl-propanamide]: 360 nM; `C[C@H](NC(=O)CO)[C@@H](Cc1ccccc1)Oc1ccc2c(cnn2-c2ccc(F)cc2)c1` [Example 74, N-[(2S,3R)-3-[1-(4-Fluorophenyl)indazol-5-yl]oxy-4-phenyl-butan-2-yl]-2-hydroxy-acetamide]: 3.7 nM. Then `COc1ccc([C@@H](Oc2ccc3c(cnn3-c3ccc(F)cc3)c2)[C@H](C)NC(=O)C2(C)CC2)cc1F` [Example 217, N-[(1R,2S)-1-(3-fluoro-4-methoxy-phenyl)-1-[1-(4-fluorophenyl)indazol-5-yl]oxy-propan-2-yl]-1-methyl-cyclopropane-1 carboxamide], with 3.9 nM; and `COCC(=O)N[C@@H](C)[C@H](Oc1ccc2c(cnn2-c2ccc(F)cc2)c1)c1ccc(F)c(F)c1` [Example 258, N-[(1R,2S)-1-(3,4-difluorophenyl)-1-[1-(4-fluorophenyl)indazol-5-yl]oxy-propan-2-yl]-2-methoxy-acetamide], with 4.4 nM; and `C[C@H](NC(=O)C(C)(F)F)[C@H](Oc1ccc2c(cnn2-c2ccc(F)cc2)c1)c1ccc(F)c(F)c1` [Example 228, N-[(1R,2S)-1-(3,4-difluorophenyl)-1-[1-(4-fluorophenyl)indazol-5-yl]oxy-propan-2-yl]-2,2-difluoro-propanamide], with 8 nM. Then `COc1ccccc1[C@@H](Oc1ccc2c(cnn2-c2ccc(F)cc2)c1)[C@H](C)NC(=O)c1ncc(C)s1` [Example 209, N-[(1R,2S)-1-[1-(4-fluorophenyl)indazol-5-yl]oxy-1-(2-methoxyphenyl)propan-2-yl]-5-methyl-1,3-thiazole-2-carboxamide], with 4.1 nM.

On to `Cc1ccc([C@@H](Oc2ccc3c(cnn3-c3ccc(F)cc3)c2)[C@H](C)NC(=O)C(F)(F)F)cc1C` [Example 149, N-[(1R,2S)-1-(3,4-dimethylphenyl)-1-[1-(4-fluorophenyl)indazol-5-yl]oxy-propan-2-yl]-2,2,2-trifluoro-acetamide], for which the IC50 was found to be 5.5 nM. Take `CCC[C@H](NC(=O)CO)[C@H](Oc1ccc2c(cnn2-c2ccc(F)cc2)c1)c1ccccc1` [Example 91, N-((1R,2S)-1-(1-(4-fluorophenyl)-1H-indazol-5-yloxy)-1-phenylpentan-2-yl)-2-hydroxyacetamide]: the IC50 is 5.2 nM.

Take `CCc1cccc([C@@H](Oc2ccc3c(cnn3-c3ccc(F)cc3)c2)[C@H](C)NC(=O)CO)c1` [Example 23, N-[(1R,2S)-1-(3-ethylphenyl)-1-[1-(4-fluorophenyl)indazol-5-yl]oxy-propan-2-yl]-2-hydroxy-acetamide]: the IC50 came out at 3.2 nM. Next, `CCSCc1ccc([C@@H](Oc2ccc3c(cnn3-c3ccc(F)cc3)c2)[C@H](C)NC(=O)CO)cc1` [Example 27, N-[(1R,2S)-1-[4-(ethylsulfanylmethyl)phenyl]-1-[1-(4-fluorophenyl)indazol-5-yl]oxy-propan-2-yl]-2-hydroxy-acetamide]: 3.2 nM. Take `C[C@H](NC(=O)Cc1ccccc1)[C@H](Oc1ccc2c(cnn2-c2ccc(F)cc2)c1)c1ccccc1` [Example 33, N-[(1R,2S)-1-[1-(4-fluorophenyl)indazol-5-yl]oxy-1-phenyl-propan-2-yl]-2-phenyl-acetamide]: the IC50 was determined as 18 nM. Consider `COc1cccc([C@@H](Oc2ccc3c(cnn3-c3ccc(F)cc3)c2)[C@H](C)NC(=O)C2CCCC2)c1` [Example 56, N-[(1R,2S)-1-[1-(4-fluorophenyl)indazol-5-yl]oxy-1-(3-methoxyphenyl)propan-2-yl]cyclopentanecarboxamide], for which the 50% inhibitory concentration (IC50) came out at 4.4 nM. Then `COc1cccc([C@@H](Oc2ccc3c(cnn3-c3ccc(F)cc3)c2)[C@H](C)NC(=O)c2cc(C)c(C)o2)c1` [Example 286, N-[(1R,2S)-1-[1-(4-fluorophenyl)indazol-5-yl]oxy-1-(3-methoxlphenyl)propan-2-yl]-4,5-dimethyl-furan-2-carboxamide], with 4.7 nM; and `Cc1cc2c(cnn2-c2ccc(F)cc2)cc1O[C@H](c1ccccc1)[C@H](C)NC(=O)C(F)(F)F` [Example 62, 2,2,2-Trifluoro-N-[(1R,2S)-1-[1-(4-fluorophenyl)-6-methyl-indazol-5-yl]oxy-1-phenyl-propan-2-yl]acetamide], with 3.5 nM.

For `C[C@H](NC(=O)c1ccco1)[C@H](Oc1ccc2c(cnn2-c2cccnc2)c1)c1ccccc1` [Example 114, N-[(1S,2R)-1-Methyl-2-phenyl-2-{[1-(3-pyridyl)-1H-indazol-5-yl]oxy}ethyl]furan-2-carboxamide], the concentration for half-maximal inhibition (IC50) amounted to 3.2 nM.

Values taken from patent US8143290B2, “Chemical compounds 572” (AstraZeneca AB, priority 2006, dated 2012).
